Reference: patent publication US20240174618A1, “SUBSTITUTED (2-HETEROARYLOXYPHENYL)SULFONATES, SALTS THEREOF AND THEIR USE AS HERBICIDAL AGENTS” (Bayer Aktiengesellschaft, priority 2021, published 2024)

Experiments:
Assay type in all cases: in vivo
Setaria viridis (SETVI) = assay: A. Herbicidal pre-emergence efficacy, SETVI
Description: (§1) Seeds of mono- and dicotyledonous weed plants were placed in plastic pots in sandy loam soil (doubly sown with one species each of mono- or dicotyledonous weed plants per pot) and covered with soil. The compounds of the invention, formulated in the form of wettable powders (WP) or as emulsion concentrates (EC), were then applied onto the surface of the covering soil as aqueous suspension or emulsion with addition of 0.5% additive at a water application rate of 600 liters per hectare (converted). After the treatment, the pots were placed in a greenhouse and kept under good growth conditions for the test plants. After about 3 weeks, the efficacy of the preparations was scored visually in comparison with untreated controls as percentages.
(§2) For example, • 100% efficacy=plants have died, • 0% efficacy=like untreated control plants.
(§3) Tables A1a to A12c below show the effects of selected compounds of the general formula (I) according to table 1 on various harmful plants at an application rate corresponding to 1280 g/ha or less, which were obtained by the experimental procedure mentioned above.

[1] = tested on: Digitaria sanguinalis (DIGSA); assay: B. Herbicidal post-emergence efficacy, DIGSA; details: 1280 g/ha, rated visually after about 3 weeks
Description: (§4) Seeds of mono- and dicotyledonous weed plants were placed in plastic pots in sandy loam soil (doubly sown with in each case one species of mono- or dicotyledonous weed plants per pot), covered with soil and cultivated in a greenhouse under controlled growth conditions. 2 to 3 weeks after sowing, the test plants were treated at the one-leaf stage. The compounds of the invention, formulated in the form of wettable powders (WP) or as emulsion concentrates (EC), were applied onto the green parts of the plants as aqueous suspension or emulsion with addition of 0.5% additive at a water application rate of 600 liters per hectare (converted). After the test plants had been kept in the greenhouse under optimum growth conditions for about 3 weeks, the activity of the preparations was rated visually in comparison to untreated controls.
(§5) For example, • 100% efficacy=plants have died, • 0% efficacy=like untreated control plants
(§6) Tables B1a to B12c below show the effects of selected inventive compounds of the general formula (I) according to table 1 on various harmful plants at an application rate corresponding to 1280 g/ha or less, which were obtained by the experimental procedure mentioned above.

Kochia scoparia (KCHSC) [2] = assay: A. Herbicidal pre-emergence efficacy, KCHSC; details: pre-emergence
Description: as §1, §2, §3

[3] = tested on: Digitaria sanguinalis (DIGSA); assay: A. Herbicidal pre-emergence efficacy, DIGSA; details: scored visually after about 3 weeks vs untreated controls
Description: as §1, §2, §3

[4] = tested on: Abutilon theophrasti (ABUTH); assay: A. Herbicidal pre-emergence efficacy, ABUTH; details: 1280 g/ha; scored visually after about 3 weeks vs untreated controls
Description: as §1, §2, §3

Veronica persica (VERPE) [5] = assay: B. Herbicidal post-emergence efficacy, VERPE
Description: as §4, §5, §6

[6] = tested on: Echinochloa crus-galli (ECHCG); assay: A. Herbicidal pre-emergence efficacy, ECHCG; details: 1280 g/ha; scored visually after about 3 weeks vs untreated controls
Description: as §1, §2, §3

[7] = tested on: Echinochloa crus-galli (ECHCG); assay: B. Herbicidal post-emergence efficacy, ECHCG; details: 1280 g/ha, rated visually after about 3 weeks
Description: as §4, §5, §6

Kochia scoparia (KCHSC) [8] = assay: B. Herbicidal post-emergence efficacy, KCHSC; details: for Post-emergence efficacy against KCHSC in %: rated visually after about 3 weeks
Description: as §4, §5, §6

[9] = tested on: Amaranthus retroflexus (AMARE); assay: B. Herbicidal post-emergence efficacy, AMARE
Description: as §4, §5, §6

Veronica persica (VERPE) [10] = assay: A. Herbicidal pre-emergence efficacy, VERPE
Description: as §1, §2, §3

Poa annua (POAAN) [11] = assay: A. Herbicidal pre-emergence efficacy, POAAN
Description: as §1, §2, §3

Poa annua (POAAN) [12] = assay: B. Herbicidal post-emergence efficacy, POAAN
Description: as §4, §5, §6

[13] = tested on: Abutilon theophrasti (ABUTH); assay: B. Herbicidal post-emergence efficacy, ABUTH; details: rated visually after about 3 weeks
Description: as §4, §5, §6

Stellaria media (STEME) [14] = assay: B. Herbicidal post-emergence efficacy, STEME
Description: as §4, §5, §6

[15] = tested on: Amaranthus retroflexus (AMARE); assay: A. Herbicidal pre-emergence efficacy, AMARE
Description: as §1, §2, §3

Stellaria media (STEME) [16] = assay: A. Herbicidal pre-emergence efficacy, STEME
Description: as §1, §2, §3

O=S(=O)(CC1CC(F)(F)C1)Oc1c(Br)cccc1Oc1ncc(Cl)cn1 [Example I-75]
Pre-emergence efficacy against SETVI (Setaria viridis (SETVI); dosage 320 g/ha): 90%
Pre-emergence efficacy against SETVI (Setaria viridis (SETVI); dosage 1280 g/ha): 100%
Post-emergence efficacy against DIGSA in % [1]: 90%
Pre-emergence efficacy against KCHSC (Kochia scoparia (KCHSC) [2]; dosage 320 g/ha): 90%
Pre-emergence efficacy against KCHSC (Kochia scoparia (KCHSC) [2]; dosage 1280 g/ha): 100%
Pre-emergence efficacy against DIGSA ([3]; 320 g/ha): 90%
Pre-emergence efficacy against DIGSA ([3]; 1280 g/ha): 100%
Pre-emergence efficacy against ABUTH [4]: 100%
Post-emergence efficacy against VERPE (Veronica persica (VERPE) [5]; 80 g/ha): 100%
Post-emergence efficacy against VERPE (Veronica persica (VERPE) [5]; 320 g/ha): 100%
Post-emergence efficacy against VERPE (Veronica persica (VERPE) [5]; 1280 g/ha): 100%
Pre-emergence efficacy against ECHCG [6]: 100%
Post-emergence efficacy against ECHCG in % [7]: 90%
Post-emergence efficacy against KCHSC in % (Kochia scoparia (KCHSC) [8]; 80 g/ha): 90%
Post-emergence efficacy against KCHSC in % (Kochia scoparia (KCHSC) [8]; 320 g/ha): 100%
Post-emergence efficacy against KCHSC (Kochia scoparia (KCHSC) [8]; 1280 g/ha): 100%
Post-emergence efficacy against AMARE ([9]; 80 g/ha): 100%
Post-emergence efficacy against AMARE ([9]; 320 g/ha): 100%
Post-emergence efficacy against AMARE ([9]; 1280 g/ha): 100%
Pre-emergence efficacy against VERPE in % (Veronica persica (VERPE) [10]; 320 g/ha): 90%
Pre-emergence efficacy against VERPE in % (Veronica persica (VERPE) [10]; 1280 g/ha): 100%
Pre-emergence efficacy against POAAN (Poa annua (POAAN) [11]; dosage 320 g/ha): 100%
Pre-emergence efficacy against POAAN (Poa annua (POAAN) [11]; dosage 1280 g/ha): 100%
Post-emergence efficacy against POAAN (Poa annua (POAAN) [12]; 320 g/ha): 90%
Post-emergence efficacy against POAAN (Poa annua (POAAN) [12]; 1280 g/ha): 90%
Post-emergence efficacy against ABUTH in % ([13]; 80 g/ha): 90%
Post-emergence efficacy against ABUTH in % ([13]; 320 g/ha): 90%
Post-emergence efficacy against ABUTH in % ([13]; 1280 g/ha): 100%
Post-emergence efficacy against STEME (Stellaria media (STEME) [14]; 320 g/ha): 100%
Post-emergence efficacy against STEME (Stellaria media (STEME) [14]; 1280 g/ha): 100%
Pre-emergence efficacy against AMARE in % ([15]; 80 g/ha): 90%
Pre-emergence efficacy against AMARE in % ([15]; 320 g/ha): 90%
Pre-emergence efficacy against AMARE in % ([15]; 1280 g/ha): 100%
Pre-emergence efficacy against STEME (Stellaria media (STEME) [16]; dosage 320 g/ha): 100%
Pre-emergence efficacy against STEME (Stellaria media (STEME) [16]; dosage 1280 g/ha): 100%
